Assay results reported in ChEMBL document CHEMBL1201862, “PubChem BioAssay data set” (2004).
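Grown in 96-well plates, cells were treated for 48 hours with each compound at five concentrations. Insufficient inhibition: endpoint recorded as highest concentration tested. At the GI50, growth is halved.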 Calls of active or inactive are those of the source. No stated cut-off is given here; in the data, active = GI50 up to about 1.1 µM and inactive = higher.

Columns and labels:
Assay in all cases: NCI tumour cell line growth inhibition, 48 h
UACC-257 = test system: UACC-257
NCI-H460 = test system: NCI-H460
NCI-H522 = test system: NCI-H522
HCC 2998 = test system: HCC 2998
A498 = test system: A498
DU-145 = test system: DU-145
T47D = test system: T47D
M14 = test system: M14
SK-MEL-28 = test system: SK-MEL-28
UO-31 = test system: UO-31
MDA-N = test system: MDA-N
SF-295 = test system: SF-295
KM12 = test system: KM12
SNB-75 = test system: SNB-75
HOP-92 = test system: HOP-92
OVCAR-3 = test system: OVCAR-3
TK-10 = test system: TK-10
MOLT-4 = test system: MOLT-4
SK-MEL-5 = test system: SK-MEL-5
SK-MEL-2 = test system: SK-MEL-2

Structure (SMILES) | GI50 (UACC-257) | GI50 (NCI-H460) | GI50 (NCI-H522) | GI50 (HCC 2998) | GI50 (A498) | GI50 (DU-145) | GI50 (T47D) | GI50 (M14) | GI50 (SK-MEL-28) | GI50 (UO-31) | GI50 (MDA-N) | GI50 (SF-295) | GI50 (KM12) | GI50 (SNB-75) | GI50 (HOP-92) | GI50 (OVCAR-3) | GI50 (TK-10) | GI50 (MOLT-4) | GI50 (SK-MEL-5) | GI50 (SK-MEL-2)
COc1ccc(/C=C\c2cc(OC)c(OC)c(OC)c2)cc1OC(=O)CC(N)C(=O)O (centres undefined) | 0.00171 µM (active) | 0.00219 µM (active) | 0.00132 µM (active) | 0.106 µM (active) | 0.00269 µM (active) | 0.00293 µM (active) | < 0.01 µM (active) | 0.00247 µM (active) | 0.000597 µM (active) | 0.00759 µM (active) | 0.000166 µM (active) | 0.0021 µM (active) | 0.00365 µM (active) | 0.000459 µM (active) | 0.00052 µM (active) | 0.00224 µM (active) | 0.519 µM (active) | 0.00366 µM (active) |  | 
COc1ccc2c(c1)C(=O)CC(N)C2 (centres undefined) | > 100 µM (inactive) | > 100 µM (inactive) | > 100 µM (inactive) | 47.6 µM (inactive) |  | > 100 µM (inactive) | > 100 µM (inactive) | > 100 µM (inactive) | > 100 µM (inactive) | 40.6 µM (inactive) | > 100 µM (inactive) | > 100 µM (inactive) | > 100 µM (inactive) | 25.1 µM (inactive) | > 100 µM (inactive) | 88.5 µM (inactive) | > 100 µM (inactive) | 19.5 µM (inactive) | > 100 µM (inactive) | > 100 µM (inactive)
CC(C)(C)OC(=O)N1C(OP(=O)(Oc2ccccc2)Oc2ccccc2)=CSc2ccccc21 | 31.6 µM (inactive) | 29.1 µM (inactive) | 27.1 µM (inactive) | 39.4 µM (inactive) |  | 89.9 µM (inactive) | 27.4 µM (inactive) | 25.8 µM (inactive) | 26.5 µM (inactive) | 27.4 µM (inactive) | 34 µM (inactive) | 29.3 µM (inactive) | 32.8 µM (inactive) | 31 µM (inactive) | 27.9 µM (inactive) | 31.3 µM (inactive) | 35 µM (inactive) | 20.1 µM (inactive) | 28.2 µM (inactive) | 19.1 µM (inactive)
O=C(c1ccco1)N1CCN(C(=O)c2ccco2)C1=S | 4.9 µM (inactive) | 8.73 µM (inactive) | 3.91 µM (inactive) | 12.4 µM (inactive) |  | 2.61 µM (inactive) | 4.78 µM (inactive) | 6.22 µM (inactive) | 5.87 µM (inactive) | 3.68 µM (inactive) | 4.7 µM (inactive) | 18.5 µM (inactive) | 3.93 µM (inactive) | 10.4 µM (inactive) | 7.23 µM (inactive) | 3.44 µM (inactive) | 6.31 µM (inactive) | 1.42 µM (inactive) | 10.1 µM (inactive) | 13 µM (inactive)
O=C(NCCCCN(CCCNC(=O)C(F)(F)F)Cc1ccc2ccccc2c1)C(F)(F)F | 17.5 µM (inactive) | 16.4 µM (inactive) | 18.2 µM (inactive) | 13.9 µM (inactive) | 20.3 µM (inactive) | 21 µM (inactive) | 17.7 µM (inactive) | 16.7 µM (inactive) | 16.7 µM (inactive) | 8.04 µM (inactive) | 17.4 µM (inactive) | 16.7 µM (inactive) | 17.5 µM (inactive) | 11.5 µM (inactive) | 16.7 µM (inactive) |  | 20.4 µM (inactive) | 24.2 µM (inactive) | 19.2 µM (inactive) | 
CC(C)C1=CC23CCC4C(C)(C(=O)O)CCCC4(C)C2CC1C1C(=O)N(c2ccccc2N2C(=O)C4C5CC6C7(C)CCCC(C)(C(=O)O)C7CCC6(C=C5C(C)C)C4C2=O)C(=O)C13 (centres undefined) |  |  | 8.73 µM (inactive) | 4.01 µM (inactive) | 2.93 µM (inactive) | 9.4 µM (inactive) | 19.9 µM (inactive) | 5.24 µM (inactive) | 7.89 µM (inactive) | 18.2 µM (inactive) | 5 µM (inactive) |  | 3.09 µM (inactive) |  | 17.9 µM (inactive) | 10.9 µM (inactive) | 13.1 µM (inactive) | 2.85 µM (inactive) | 5.83 µM (inactive) | 12.2 µM (inactive)
